Literature values in US20170304358A1, “PRIMARY AND SECONDARY PREVENTION OF DEMENTIAS AND SUICIDE WITH TRACE DOSE LITHIUM” (priority 2014, published 2017).

Columns and labels:
[1] = standard doses of lithium
[2] = tested on: cognition in persons with MCI; conditions: micro-doses (<0.28 mg/d of lithium carbonate)

Structure (SMILES): [Li] [lithium]
- adverse side effects [1]: renal toxicity

Structure (SMILES): O=C([O-])[O-].[Li+].[Li+] [Lithium carbonate, lithium carbonate]
- benefit for cognition in MCI [2]: some benefit for cognition
